{"source": "paper PMC3947011", "about": "(ACS chemical biology, 2013)", "assay_type_in_all_cases": "cell-based", "key": {"[1]": {"test_system": "Methicillin-resistant S. epidermidis (RP62A)"}, "[2]": {"test_system": "P. aeruginosa (ATCC 27853)"}, "[3]": {"test_system": "K. pneumoniae (ATCC 13383)"}, "E. coli (ATCC 25922)": {"test_system": "E. coli (ATCC 25922)"}, "[4]": {"test_system": "Methicillin-resistant S. aureus (ATCC 33591)"}, "[5]": {"test_system": "Vancomycin-resistant E. faecalis (ATCC 700802)"}}, "note": "Where two headings read alike, the source gives them in different places.", "data": [{"substance": "Pexiganan", "values": [{"measurement": "MIC S. epidermidis", "setting": "[1]; 24 h", "value": 8, "unit": "µg/mL"}, {"measurement": "MIC S. epidermidis", "setting": "[1]; value in parentheses", "value": 3, "unit": "µM"}, {"measurement": "MIC P. aeruginosa", "setting": "[2]; 24 h", "value": 16, "unit": "µg/mL"}, {"measurement": "MIC P. aeruginosa", "setting": "[2]; value in parentheses", "value": 6, "unit": "µM"}, {"measurement": "MIC K. pneumoniae", "setting": "[3]; 24 h", "value": 8, "unit": "µg/mL"}, {"measurement": "MIC K. pneumoniae", "setting": "[3]; value in parentheses", "value": 3, "unit": "µM"}, {"measurement": "MIC E. coli", "setting": "E. coli (ATCC 25922); complete growth inhibition after 24 h, highest tested 25 μg/mL", "value": 8, "unit": "µg/mL"}, {"measurement": "MIC E. coli", "setting": "E. coli (ATCC 25922); value in parentheses", "value": 3, "unit": "µM"}, {"measurement": "MIC S. aureus", "setting": "[4]; 24 h", "value": 16, "unit": "µg/mL"}, {"measurement": "MIC S. aureus", "setting": "[4]; value in parentheses", "value": 6, "unit": "µM"}, {"measurement": "MIC E. faecalis", "setting": "[5]; 24 h", "value": 32, "unit": "µg/mL"}, {"measurement": "MIC E. faecalis", "setting": "[5]; value in parentheses", "value": 12, "unit": "µM"}]}]}
